# What was measured:
# LOX IMIV (melanoma) = assay: NCI 60-cell one-dose antiproliferative screen; assay type: cell-based, human; conditions: one dose 10 μM
# IGROV1 (ovarian cancer) = assay: NCI 60-cell one-dose antiproliferative screen; assay type: cell-based, human; conditions: one dose 10 μM
# [1] = test system: NCI-H522 (NSC lung cancer); assay: NCI 60-cell one-dose antiproliferative screen; assay type: cell-based, human; conditions: one dose 10 μM
# SK-MEL-28 (melanoma) = assay: NCI 60-cell one-dose antiproliferative screen; assay type: cell-based, human; conditions: one dose 10 μM
# OVCAR-3 (ovarian cancer) = assay: NCI 60-cell one-dose antiproliferative screen; assay type: cell-based, human; conditions: one dose 10 μM
# EKVX (NSC lung cancer) = assay: NCI 60-cell one-dose antiproliferative screen; assay type: cell-based, human; conditions: one dose 10 μM
# [2] = test system: MDA-MB-231/ATCC (breast cancer); assay: NCI 60-cell one-dose antiproliferative screen; assay type: cell-based, human; conditions: one dose 10 μM
# UO-31 (renal cancer) = assay: NCI 60-cell one-dose antiproliferative screen; assay type: cell-based, human; conditions: one dose 10 μM
# MALME-3M (melanoma) = assay: NCI 60-cell one-dose antiproliferative screen; assay type: cell-based, human; conditions: one dose 10 μM
# UACC-62 (melanoma) = assay: NCI 60-cell one-dose antiproliferative screen; assay type: cell-based, human; conditions: one dose 10 μM
# PC-3 (prostate cancer) = assay: NCI 60-cell one-dose antiproliferative screen; assay type: cell-based, human; conditions: one dose 10 μM
# HCC-2998 (colon cancer) = assay: NCI 60-cell one-dose antiproliferative screen; assay type: cell-based, human; conditions: one dose 10 μM
# HCT-15 (colon cancer) = assay: NCI 60-cell one-dose antiproliferative screen; assay type: cell-based, human; conditions: one dose 10 μM
# [3] = test system: MDA-MB-468 (breast cancer); assay: NCI 60-cell one-dose antiproliferative screen; assay type: cell-based, human; conditions: one dose 10 μM
# [4] = test system: NCI-H226 (NSC lung cancer); assay: NCI 60-cell one-dose antiproliferative screen; assay type: cell-based, human; conditions: one dose 10 μM
# ACHN (renal cancer) = assay: NCI 60-cell one-dose antiproliferative screen; assay type: cell-based, human; conditions: one dose 10 μM
# [5] = test system: NCI/ADR-RES (ovarian cancer); assay: NCI 60-cell one-dose antiproliferative screen; assay type: cell-based, human; conditions: one dose 10 μM
# SNB-19 (CNS cancer) = assay: NCI 60-cell one-dose antiproliferative screen; assay type: cell-based, human; conditions: one dose 10 μM
# [6] = test system: NCI-H322M (NSC lung cancer); assay: NCI 60-cell one-dose antiproliferative screen; assay type: cell-based, human; conditions: one dose 10 μM
# HCT-116 (colon cancer) = assay: NCI 60-cell one-dose antiproliferative screen; assay type: cell-based, human; conditions: one dose 10 μM
# [7] = test system: NCI-H460 (NSC lung cancer); assay: NCI 60-cell one-dose antiproliferative screen; assay type: cell-based, human; conditions: one dose 10 μM
# U251 (CNS cancer) = assay: NCI 60-cell one-dose antiproliferative screen; assay type: cell-based, human; conditions: one dose 10 μM
# MCF7 (breast cancer) = assay: NCI 60-cell one-dose antiproliferative screen; assay type: cell-based, human; conditions: one dose 10 μM
# MDA-MB-435 (melanoma) = assay: NCI 60-cell one-dose antiproliferative screen; assay type: cell-based, human; conditions: one dose 10 μM
# [8] = test system: NCI-H23 (NSC lung cancer); assay: NCI 60-cell one-dose antiproliferative screen; assay type: cell-based, human; conditions: one dose 10 μM
# COLO-205 (colon cancer) = assay: NCI 60-cell one-dose antiproliferative screen; assay type: cell-based, human; conditions: one dose 10 μM
# DU-145 (prostate cancer) = assay: NCI 60-cell one-dose antiproliferative screen; assay type: cell-based, human; conditions: one dose 10 μM
# HS 578T (breast cancer) = assay: NCI 60-cell one-dose antiproliferative screen; assay type: cell-based, human; conditions: one dose 10 μM
# [9] = test system: A549/ATCC (NSC lung cancer); assay: NCI 60-cell one-dose antiproliferative screen; assay type: cell-based, human; conditions: one dose 10 μM
# M14 (melanoma) = assay: NCI 60-cell one-dose antiproliferative screen; assay type: cell-based, human; conditions: one dose 10 μM
# SF-539 (CNS cancer) = assay: NCI 60-cell one-dose antiproliferative screen; assay type: cell-based, human; conditions: one dose 10 μM
# HOP-62 (NSC lung cancer) = assay: NCI 60-cell one-dose antiproliferative screen; assay type: cell-based, human; conditions: one dose 10 μM
# KM12 (colon cancer) = assay: NCI 60-cell one-dose antiproliferative screen; assay type: cell-based, human; conditions: one dose 10 μM
# SW-620 (colon cancer) = assay: NCI 60-cell one-dose antiproliferative screen; assay type: cell-based, human; conditions: one dose 10 μM
# HT29 (colon cancer) = assay: NCI 60-cell one-dose antiproliferative screen; assay type: cell-based, human; conditions: one dose 10 μM
# CCRF-CEM (leukemia) = assay: NCI 60-cell one-dose antiproliferative screen; assay type: cell-based, human; conditions: one dose 10 μM
# SK-MEL-2 (melanoma) = assay: NCI 60-cell one-dose antiproliferative screen; assay type: cell-based, human; conditions: one dose 10 μM
# UACC-257 (melanoma) = assay: NCI 60-cell one-dose antiproliferative screen; assay type: cell-based, human; conditions: one dose 10 μM
# 786-0 (renal cancer) = assay: NCI 60-cell one-dose antiproliferative screen; assay type: cell-based, human; conditions: one dose 10 μM
# HOP-92 (NSC lung cancer) = assay: NCI 60-cell one-dose antiproliferative screen; assay type: cell-based, human; conditions: one dose 10 μM
# RPMI-8226 (leukemia) = assay: NCI 60-cell one-dose antiproliferative screen; assay type: cell-based, human; conditions: one dose 10 μM
# RXF 393 (renal cancer) = assay: NCI 60-cell one-dose antiproliferative screen; assay type: cell-based, human; conditions: one dose 10 μM
# CAKI-1 (renal cancer) = assay: NCI 60-cell one-dose antiproliferative screen; assay type: cell-based, human; conditions: one dose 10 μM
# OVCAR-4 (ovarian cancer) = assay: NCI 60-cell one-dose antiproliferative screen; assay type: cell-based, human; conditions: one dose 10 μM
# SNB-75 (CNS cancer) = assay: NCI 60-cell one-dose antiproliferative screen; assay type: cell-based, human; conditions: one dose 10 μM
# OVCAR-5 (ovarian cancer) = assay: NCI 60-cell one-dose antiproliferative screen; assay type: cell-based, human; conditions: one dose 10 μM
# SF-295 (CNS cancer) = assay: NCI 60-cell one-dose antiproliferative screen; assay type: cell-based, human; conditions: one dose 10 μM
# SN12C (renal cancer) = assay: NCI 60-cell one-dose antiproliferative screen; assay type: cell-based, human; conditions: one dose 10 μM
# A498 (renal cancer) = assay: NCI 60-cell one-dose antiproliferative screen; assay type: cell-based, human; conditions: one dose 10 μM
# T-47D (breast cancer) = assay: NCI 60-cell one-dose antiproliferative screen; assay type: cell-based, human; conditions: one dose 10 μM
# SF-268 (CNS cancer) = assay: NCI 60-cell one-dose antiproliferative screen; assay type: cell-based, human; conditions: one dose 10 μM
# [10] = test system: 60 human tumor cell lines; assay: NCI 60-cell one-dose antiproliferative screen, whole panel; assay type: cell-based
# TK-10 (renal cancer) = assay: NCI 60-cell one-dose antiproliferative screen; assay type: cell-based, human; conditions: one dose 10 μM
# SK-OV-3 (ovarian cancer) = assay: NCI 60-cell one-dose antiproliferative screen; assay type: cell-based, human; conditions: one dose 10 μM
# OVCAR-8 (ovarian cancer) = assay: NCI 60-cell one-dose antiproliferative screen; assay type: cell-based, human; conditions: one dose 10 μM
compound,measurement,setting,value
"CC(=O)NNc1ccc2nnc(-c3ccccc3)n2n1 [Compound 6a, N′-(3-Phenyl-[1,2,4]triazolo[4,3-b]pyridazin-6-yl)acetohydrazide]",GI%,LOX IMIV (melanoma),— (— GI% is below 15%)
same,GI%,IGROV1 (ovarian cancer),— (— GI% is below 15%)
same,GI%,[1],— (— GI% is below 15%)
same,GI%,SK-MEL-28 (melanoma),— (— GI% is below 15%)
same,GI%,OVCAR-3 (ovarian cancer),— (— GI% is below 15%)
same,GI%,EKVX (NSC lung cancer),— (— GI% is below 15%)
same,GI%,[2],— (— GI% is below 15%)
same,GI%,UO-31 (renal cancer),— (— GI% is below 15%)
same,GI%,MALME-3M (melanoma),— (— GI% is below 15%)
same,GI%,UACC-62 (melanoma),— (— GI% is below 15%)
same,GI%,PC-3 (prostate cancer),— (— GI% is below 15%)
same,GI%,HCC-2998 (colon cancer),— (— GI% is below 15%)
same,GI%,HCT-15 (colon cancer),— (— GI% is below 15%)
same,GI%,[3],— (— GI% is below 15%)
same,GI%,[4],— (— GI% is below 15%)
same,GI%,ACHN (renal cancer),— (— GI% is below 15%)
same,GI%,[5],— (— GI% is below 15%)
same,GI%,SNB-19 (CNS cancer),— (— GI% is below 15%)
same,GI%,[6],— (— GI% is below 15%)
same,GI%,HCT-116 (colon cancer),— (— GI% is below 15%)
same,GI%,[7],— (— GI% is below 15%)
same,GI%,U251 (CNS cancer),— (— GI% is below 15%)
same,GI%,MCF7 (breast cancer),— (— GI% is below 15%)
same,GI%,MDA-MB-435 (melanoma),— (— GI% is below 15%)
same,GI%,[8],— (— GI% is below 15%)
same,GI%,COLO-205 (colon cancer),— (— GI% is below 15%)
same,GI%,DU-145 (prostate cancer),— (— GI% is below 15%)
same,GI%,HS 578T (breast cancer),— (— GI% is below 15%)
same,GI%,[9],— (— GI% is below 15%)
same,GI%,M14 (melanoma),— (— GI% is below 15%)
same,GI%,SF-539 (CNS cancer),— (— GI% is below 15%)
same,GI%,HOP-62 (NSC lung cancer),— (— GI% is below 15%)
same,GI%,KM12 (colon cancer),— (— GI% is below 15%)
same,GI%,SW-620 (colon cancer),— (— GI% is below 15%)
same,GI%,HT29 (colon cancer),— (— GI% is below 15%)
same,GI%,CCRF-CEM (leukemia),— (— GI% is below 15%)
same,GI%,SK-MEL-2 (melanoma),— (— GI% is below 15%)
same,GI%,UACC-257 (melanoma),— (— GI% is below 15%)
same,GI%,786-0 (renal cancer),— (— GI% is below 15%)
same,GI%,HOP-92 (NSC lung cancer),— (— GI% is below 15%)
same,GI%,RPMI-8226 (leukemia),— (— GI% is below 15%)
same,GI%,RXF 393 (renal cancer),— (— GI% is below 15%)
same,GI%,CAKI-1 (renal cancer),— (— GI% is below 15%)
same,GI%,OVCAR-4 (ovarian cancer),— (— GI% is below 15%)
same,GI%,SNB-75 (CNS cancer),— (— GI% is below 15%)
same,GI%,OVCAR-5 (ovarian cancer),— (— GI% is below 15%)
same,GI%,SF-295 (CNS cancer),— (— GI% is below 15%)
same,GI%,SN12C (renal cancer),— (— GI% is below 15%)
same,GI%,A498 (renal cancer),— (— GI% is below 15%)
same,GI%,T-47D (breast cancer),— (— GI% is below 15%)
same,GI%,SF-268 (CNS cancer),— (— GI% is below 15%)
same,inhibition at 10 µM,"[10]; Homo sapiens, 60 cell, read-out: Mean inhibition (mean GI%)",< 15%
same,cytotoxic activity in words,"[10]; NCI-60 panel, one dose 10 μM",demolished cytotoxicity
same,GI%,TK-10 (renal cancer),— (— GI% is below 15%)
same,GI%,SK-OV-3 (ovarian cancer),— (— GI% is below 15%)
same,GI%,OVCAR-8 (ovarian cancer),— (— GI% is below 15%)

# Source: publication PMC11420776 (RSC Advances, 2024)
